Assay results as given in US11655269B2, “Prodrug-type anticancer agent using cancer-specific enzymatic activity” (The University of Tokyo, priority 2018, dated 2023).
Blank lines part the entries; values can stand above or below the compound they belong to.

Key:
GGT = test: Enzymatic reaction with purified GGT, LC-MS analysis of products; assay type: biochemical
Protocol: (§1) Next, enzymatic reactions were carried out under the following conditions using the three compounds synthesized and purified enzymes.
(§2) Final compound concentration: 100 μM
(§3) Final enzyme concentration: 4 nM (β-Gal), 8.5 μg/mL (DPP-IV), 10 U/mL (GGT)
(§4) Reaction temperature: 37° C.
(§5) (2) Enzymatic Reaction Using DPP-IV and GGT
(§6) Instrument: 1260 Infinity (manufactured by Agilent Technologies, Inc.)
(§7) Column: Poroshell 120, 4.6×100 mm (manufactured by Agilent Technologies, Inc.)
(§8) Mobile phase A: water (0.01M ammonium formate)
(§9) Mobile phase B: 80% acetonitrile/water (0.01M ammonium formate)
Next, enzymatic reactions were carried out under the following conditions using the benzyl-position leaving group-converted derivatives synthesized and purified enzyme.
Final enzyme concentration: 10 U/mL (GGT)
Enzymatic reaction using GGT

[1] = tested on: SHIN3 cells (high GGT expression) and H226 cells (low GGT expression); test: CCK-8 assay, cells with high and low GGT expression; assay type: cell-based, human
Protocol: (§10) Next, it was verified whether compounds 1-3 can change the cell viability by functioning as a prodrug when administered to cells with high and low enzyme expression. The efficacy studies were carried out by using a general colorimetric method called CCK-8 assay (method for quantifying the dehydrogenase activity inside living cells through reduction of colorless WST-8 to orange formazan) to quantify the number of living cells. The CCK-8 assay evaluation method is described below.
(§11) The B-galactosidase-activated prodrug was evaluated using HEK/lac Z cells (cells derived from human kidney cells, high β-Gal expression) and HEK293 cells (cells derived from human kidney cells, low β-Gal expression). The DPP-IV-activated prodrug was evaluated using H226 cells (human lung squamous cell carcinoma cells, high DPP-IV expression) and H460 cells (human non-small cell epithelial lung cancer cells, low DPP-IV expression). The GGT-activated prodrug was evaluated using SHIN3 cells (human ovarian cancer cells, high GGT expression) and H226 cells (human lung squamous cell carcinoma cells, low GGT expression).
Each type of cell was seeded in 96-well plates (cell density: 1.0×10^4/well) and incubated overnight. The medium was exchanged for fresh medium, and the synthesized derivatives were added (final concentration 1-50 μM, 0.5% DMSO, n=3). After culturing the cells for another 24 hours, a Cell Counting Kit-8 (10 μL/well, manufactured by […]) was added. After 2.5 hours, the 450 nm absorbance was measured by a plate reader, and the number of viable cells was quantified.
Next, benzyl-position leaving group-converted derivatives were subjected to the CCK-8 assay described above.

[2] = tested on: SHIN3 cells and H226 cells; test: Cell death observation by fluorescence imaging over time with EthD-1 (protocol 1); assay type: cell-based, human; conditions: SHIN3 vs H226 cultured separately, imaging over 24 hr; FIG. 8
Description: Since changing the types of cells and standardizing the medium to RPMI-1640 made coculture possible, the aim then became to observe cell death under coculture conditions and to construct a quantitative method. It was decided to conduct these studies using compound 3 for GGT (gGlu-FMA) based on the results obtained thus far, and the possibility of visually observing cell death by observation of fluorescence using one type of cell was first explored as an initial study (FIG. 8).
Scan mode: xyzt, x=512, y=512, z=4, t=24. Scale bar: 50 μm.

SHIN3 cells = test: Administration study in peritoneal dissemination model mice; assay type: in vivo; conditions: 5 mg/kg intraperitoneally each day from day 7, imaged day 21 with gGlu-HMRG, vs PBS; FIG. 17
Protocol: Peritoneal dissemination model mice were created by intraperitoneal administration of SHIN3 cells (cancer cell line derived from ovarian cancer, high GGT activity) suspended in PBS. From day seven after cell dissemination, 5 mg/kg of gGlu-FMA or PBS (control) was administered intraperitoneally each day. On day 21 after cell dissemination, gGlu-HMRG was administered intraperitoneally, and the mice were sacrificed ten minutes later. After laparotomy, fluorescence images were acquired by a Maestro in vivo imaging device (FIG. 16).

[3] = tested on: cocultured SHIN3 cells and H226 cells; test: Cell death observation under coculture conditions, time-lapse fluorescence imaging with EthD-1 (protocol 2); assay type: cell-based, human; conditions: coculture of high and low GGT expression cells, 24 hr time-lapse imaging; FIG. 9
[4] = tested on: SHIN3 cells and H226 cells; test: Efficacy evaluation by flow cytometry (protocol 3); assay type: cell-based, human; conditions: 25 μM, 24-hr incubation; compared with +100 μM GGsTop and 0.25% DMSO control; FIG. 10
Protocol: On the other hand, since it is impossible to quantitatively discuss the extent to which the survival rates of high-expression/low-expression cells have changed, the present inventors studied whether this could be evaluated using flow cytometry (FIG. 10).
(Top) 25 μM model compound, (middle) 25 μM model compound+100 μM GGsTop, (bottom) 0.25% DMSO control. Analysis was carried out after 24-hr incubation.

[5] = tested on: H226 cells (high DPP-IV expression) and H460 cells (low DPP-IV expression); test: CCK-8 assay, cells with high and low DPP-IV expression; assay type: cell-based, human; conditions: H226 (high DPP-IV) vs H460 (low DPP-IV), 1-50 μM, 24 hours; FIG. 6
Protocol: as §10, §11
(§12) Each type of cell was seeded in 96-well plates (cell density: 1.0×10^4/well) and incubated overnight. […] After 2.5 hours, the 450 nm absorbance was measured by a plate reader, and the number of viable cells was quantified.

DPP-IV = DPP-IV (Homo sapiens, UniProt P27487); test: Enzymatic reaction with purified DPP-IV, LC-MS analysis of products; assay type: biochemical; conditions: 100 μM compound, 8.5 μg/mL DPP-IV, 37° C.; reaction product 2-aminobenzyl alcohol; FIG. 4
DPP-IV, sequence (P27487 whole entry, species assumed): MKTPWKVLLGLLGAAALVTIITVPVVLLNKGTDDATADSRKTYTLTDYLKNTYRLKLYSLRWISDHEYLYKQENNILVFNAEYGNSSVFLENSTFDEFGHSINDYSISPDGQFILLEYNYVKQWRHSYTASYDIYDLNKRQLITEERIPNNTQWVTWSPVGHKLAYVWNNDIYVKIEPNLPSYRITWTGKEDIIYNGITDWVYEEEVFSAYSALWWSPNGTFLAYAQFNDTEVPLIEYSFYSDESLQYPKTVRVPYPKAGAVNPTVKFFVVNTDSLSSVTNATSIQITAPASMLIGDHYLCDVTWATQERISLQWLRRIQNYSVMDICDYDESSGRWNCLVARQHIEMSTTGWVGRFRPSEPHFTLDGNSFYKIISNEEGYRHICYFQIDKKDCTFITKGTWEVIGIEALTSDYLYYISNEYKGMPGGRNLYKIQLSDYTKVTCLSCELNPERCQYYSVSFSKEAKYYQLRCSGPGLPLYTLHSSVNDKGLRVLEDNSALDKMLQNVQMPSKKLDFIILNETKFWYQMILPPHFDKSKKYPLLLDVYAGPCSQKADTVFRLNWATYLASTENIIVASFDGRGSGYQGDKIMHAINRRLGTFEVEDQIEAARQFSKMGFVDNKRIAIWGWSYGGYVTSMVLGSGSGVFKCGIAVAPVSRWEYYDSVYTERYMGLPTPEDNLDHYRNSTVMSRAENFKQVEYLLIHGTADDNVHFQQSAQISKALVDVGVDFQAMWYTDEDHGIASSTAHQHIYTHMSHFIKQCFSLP
Protocol: as §1, §2, §3, §4, §5, §6, §7, §8, §9

β-Gal = β-Gal (Escherichia coli, UniProt P00722); test: Enzymatic reaction with purified β-galactosidase, LC-MS analysis of products; assay type: biochemical; conditions: 100 μM compound, 4 nM β-Gal, 37° C.; reaction product 2-hydroxybenzyl alcohol; FIG. 4
β-Gal, sequence (P00722 2-1024): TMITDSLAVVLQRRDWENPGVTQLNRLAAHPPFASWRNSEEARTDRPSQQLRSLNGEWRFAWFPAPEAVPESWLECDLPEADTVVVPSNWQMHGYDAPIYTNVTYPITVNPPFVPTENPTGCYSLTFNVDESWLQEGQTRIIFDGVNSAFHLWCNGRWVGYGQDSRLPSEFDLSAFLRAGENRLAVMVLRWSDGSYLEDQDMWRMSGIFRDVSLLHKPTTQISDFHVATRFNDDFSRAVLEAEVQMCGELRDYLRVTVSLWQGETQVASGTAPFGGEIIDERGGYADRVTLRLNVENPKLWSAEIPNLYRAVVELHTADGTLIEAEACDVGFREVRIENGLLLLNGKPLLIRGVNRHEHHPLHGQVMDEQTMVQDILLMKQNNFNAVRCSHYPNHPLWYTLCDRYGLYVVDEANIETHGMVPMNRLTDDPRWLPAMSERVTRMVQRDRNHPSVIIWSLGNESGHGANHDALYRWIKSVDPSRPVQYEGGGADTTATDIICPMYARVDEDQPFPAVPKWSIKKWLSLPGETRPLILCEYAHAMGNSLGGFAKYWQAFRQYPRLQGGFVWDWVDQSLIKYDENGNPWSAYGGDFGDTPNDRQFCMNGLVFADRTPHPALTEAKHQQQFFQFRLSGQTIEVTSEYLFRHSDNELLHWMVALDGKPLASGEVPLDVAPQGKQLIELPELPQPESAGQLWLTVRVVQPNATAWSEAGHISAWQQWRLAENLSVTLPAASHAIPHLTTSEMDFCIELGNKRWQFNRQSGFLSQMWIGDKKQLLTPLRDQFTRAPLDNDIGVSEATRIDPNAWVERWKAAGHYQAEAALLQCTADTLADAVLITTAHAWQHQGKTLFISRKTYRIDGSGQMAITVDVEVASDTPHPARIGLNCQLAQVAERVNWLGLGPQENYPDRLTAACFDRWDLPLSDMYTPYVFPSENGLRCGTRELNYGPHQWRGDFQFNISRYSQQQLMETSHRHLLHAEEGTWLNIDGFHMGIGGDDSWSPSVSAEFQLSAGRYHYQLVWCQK
Protocol: as §1, §2, §3, §4
(1) Enzymatic Reaction Using β-Galactosidase
Instrument: ACQUITY UPLC (manufactured by Waters Corporation)
as §7, §8, §9

HEK293 cells = test: CCK-8 assay, cells with low β-Gal expression; assay type: cell-based, human; conditions: 50 μM, after 24 hours, FIG. 5
Protocol: as §10, §11, §12

HEK/lac Z cells = test: CCK-8 assay, cells with high β-Gal expression; assay type: cell-based, human; conditions: FIG. 5
Protocol: as §10, §11, §12

SMILES: COP(=O)(CCC(N)C(=O)O)Oc1cccc(CC(=O)O)c1 (stereo not shown) [GGsTop, reference compound]
effect of inhibitor on the GGT enzymatic reaction of the model compound (GGT; inhibitor added at 100 μM): inhibited
effect of GGT inhibitor on survival rate of cells treated with the GGT prodrug ([1]; CCK-8, FIG. 7): completely restored the survival rate

SMILES: N[C@@H](CCC(=O)Nc1ccccc1CF)C(=O)O [compound 3]
cell death (EthD-1 dead cell staining) [2]: more cell death occurred in SHIN3 cells
tumors on the mesentery (macro and fluorescence images) (SHIN3 cells): Tumors appear to be decreased overall
selective cell damage in coculture (EthD-1 dead cell staining) [3]: selectively damages high-expression cells
cleavage by GGT (GGT; 100 μM compound, 10 U/mL GGT, 37° C., reaction product 2-aminobenzyl alcohol, FIG. 4): cleaved
cell death by flow cytometry (EthD-1 dead staining) [4]: selective cell death of SHIN3 cells
changes in cell viability between cells with high and low enzyme expression ([1]; SHIN3 (high GGT) vs H226 (low GGT), 1-50 μM, 24 hours, FIG. 7): changes in the cell viability were observed
cell type selectivity ([1]; SHIN3 vs H226, CCK-8, FIG. 7): high cell type selectivity
antitumor activity (CCK-8 assay) ([1]; concentration of 25 μM, FIG. 13): showed an effect

cleavage by DPP-IV (DPP-IV): cleaved
SMILES: NCC(=O)N1CCC[C@H]1C(=O)Nc1ccccc1CF [compound 2]
changes in cell viability between cells with high and low enzyme expression [5]: changes in the cell viability were observed

SMILES: OCC1O[C@@H](Oc2ccccc2CF)C(O)C(O)[C@H]1O (stereo partly shown) [compound 1]
cleavage by β-Gal (β-Gal): cleaved
survival rate (HEK293 cells): did not drop at all
survival rate (HEK/lac Z cells; HEK/lac Z cells, 50 μM, after 24 hours): did not drop at all
difference in survival rate between high-expression and low-expression cells (HEK/lac Z cells; HEK/lac Z vs HEK293, up to 50 μM, 24 hours): no significant difference
